# Test system: B16F10.A24/SART2^93-101 cells
# Experiment: Lung metastatic model: intravenous transplantation of B16F10.A24/SART2^93-101 cells, count of metastatic pulmonary nodules
# Type: in vivo, mouse
# Conditions: B2m^tm2(HLA-A24/H-2Db/B2M)Tai mice; emulsion with Montanide ISA 51 VG subcutaneously on Day 1, Day 8, Day 15; lungs resected Day 28; compared with control group, p=0.0014, Student's t-test
# Protocol: Eleven-week-old B2m^tm2(HLA-A24/H-2Db/B2M)Tai mice (J. Immunol.: 198, 516-527, 2017) were randomly divided into groups each consisting of 10 mice. The day of grouping was designated Day 0.
# The B16F10.A24/SART2^93-101 cells (PLoS One: 13, e0199249, 2018) were cultured using the Dulbecco's Modified Eagle's Medium (Sigma-Aldrich) containing 10% FBS. The B16F10.A24/SART2^93-101 cells were subjected to subculture in an incubator at 37° C. in the presence of 5% CO2 two times a week at a ratio of 1:25 to 1:40.
# On the day of grouping of mice (Day 0), the B16F10.A24/SART2^93-101 cell suspension prepared using D-PBS (FUJIFILM Wako Pure Chemical Corporation) was transplanted into the tail veins of mice at 1×10^6 cells/0.1 ml.
# The mouse models are found to undergo recurrence of tumor cells transplanted into the blood in the lung. Accordingly, such mouse models can be regarded as simulating the recurrence mechanism caused by cancer metastasis in humans. By verifying the effects in such models, accordingly, the inhibitory effects on tumor metastasis and recurrence can be verified. […]
# The lungs were resected 28 days after transplantation of the B16F10.A24/SART2^93-101 cells (Day 28), and the number of metastatic pulmonary nodules was visually counted.
substance,measurement,value
PEP5-RR-PEP9-RR-PEP6-RR-PEP4 (DYSARWNEIRRQIRPIFSNRRRVYDYNCHVDLRRLLQAEAPRL) [TPV06],number of metastatic pulmonary nodules,significantly reduced
